Like-named read-outs stand apart in the source and are kept apart here.
Test: Solubility limit of impurity in molten acrylic acid
Assay type: physicochemical
Excerpt: In addition to other impurities, acrylic acid pre-purified by distillation may contain maleic acid, its anhydride, and phenothiazine which precipitate from the molten material at concentrations of more than 4% (maleic acid) and 1.5% (phenothiazine), respectively. The respective amounts of solid precipitating during a crystallization process as a result of surpassing the solubility limit can be inferred from the following Examples (Table 1 and 2).
The solubility of maleic acid in acrylic acid is about 4%. The residue (13.2 kg) contains 20.4% or 2.7 kg of maleic acid, 2.4 kg of which precipitates as a solid as a result of surpassing the solubility limit.

| SMILES | solubility in acrylic acid (in acrylic acid melt / mother liquor, precipitates above this concentration) | solubility in acrylic acid |
| --- | --- | --- |
| c1ccc2c(c1)Nc1ccccc1S2 [PTZ, phenothiazine] | about 1.5% | – |
| O=C(O)/C=C\C(=O)O [maleic acid] | – | about 4% |
